Laboratory results taken from patent publication US20210309619A1, “ISOXAZOLIN-5-ONE DERIVATIVES AND HERBICIDES CONTAINING THE SAME AS ACTIVE INGREDIENTS” (HOKKO CHEMICAL INDUSTRY CO., LTD., priority 2018, published 2021).

Legend:
Assay type in all cases: in vivo
[1] = system: Echinochloa crus-galli; experiment: Herbicidal effect test by treatment of rice paddy soil (Test Example 1); conditions: 120 g/10 a, treated immediately after seeding, 14 days after treatment
Method: (§1) Wagner pots with an area of 1/10000 ares were filled with a paddy soil, and a compound fertilizer (N:P:K=17:17:17) was mixed after water was added, followed by soil puddling. Then, Echinochloa crus-galli, broad leaf weeds (Lindernia pyxidaria and Monochoria vaginalis) and Scirpus juncoides, 30 seeds each, were sown in a depth of 0 to 1 cm. Water was poured immediately after seeding, and the water depth was kept at about 3 cm. A subsequent management was conducted in a glass greenhouse. Immediately after that, emulsions prepared using the compounds in Table 3 below according to Formulation Example 5 were diluted with water, and a certain amount of the water-diluted agent solutions were dropped. A converted amount of the applied active ingredient corresponded to 120 g per 10 ares.
(§2) This test was conducted in a double system per one agent solution concentration area, and the herbicidal rates (%) were determined by the following equation (Math. 1) 14 days after the treatment with the agents.
(§3) Herbicidal Rate (%)={1−(Average Dry Weight (g) of Plant of Treated Area)/(Average Dry Weight (g) of Plant of Untreated Area)}×100 [Math. 1]

[2] = system: Lindernia pyxidaria; experiment: as above; conditions: 120 g/10 a, treated immediately after seeding, 14 days after treatment
Method: as §1, §2, §3

[3] = system: Monochoria vaginalis; experiment: as above; conditions: 120 g/10 a, treated immediately after seeding, 14 days after treatment
Method: as §1, §2, §3

[4] = system: Scirpus juncoides; experiment: as above; conditions: 120 g/10 a, treated immediately after seeding, 14 days after treatment
Method: as §1, §2, §3

[5] = system: Echinochloa crus-galli; experiment: Herbicidal effect test by treatment during growing period in paddy rice cultivation (Test Example 2); conditions: 120 g/10 a, treated seven days after seeding, 14 days after treatment
Text: as §3
as §1, with “after addition of water,” for “after water was added,”, “greenhouse. Emulsions” for “greenhouse. Immediately after that, emulsions”, “Table 4” for “Table 3”, “with water seven days after seeding,” for “with water,”, “ares. The test was conducted in a double system per one agent solution concentration area, and the herbicidal rates (%) were determined by the equation (Math. 1) 14 days after the treatment with the agents. In this regard, the compound numbers in Table 4 are the same as those in Table 1 and Table 2 above.” for “ares.”

[6] = system: Lindernia pyxidaria; experiment: as above; conditions: 120 g/10 a, treated seven days after seeding, 14 days after treatment
Text: as §3
as §1, with “after addition of water,” for “after water was added,”, “greenhouse. Emulsions” for “greenhouse. Immediately after that, emulsions”, “Table 4” for “Table 3”, “with water seven days after seeding,” for “with water,”, “ares. The test was conducted in a double system per one agent solution concentration area, and the herbicidal rates (%) were determined by the equation (Math. 1) 14 days after the treatment with the agents. In this regard, the compound numbers in Table 4 are the same as those in Table 1 and Table 2 above.” for “ares.”

[7] = system: Monochoria vaginalis; experiment: as above; conditions: 120 g/10 a, treated seven days after seeding, 14 days after treatment
Text: as §3
as §1, with “after addition of water,” for “after water was added,”, “greenhouse. Emulsions” for “greenhouse. Immediately after that, emulsions”, “Table 4” for “Table 3”, “with water seven days after seeding,” for “with water,”, “ares. The test was conducted in a double system per one agent solution concentration area, and the herbicidal rates (%) were determined by the equation (Math. 1) 14 days after the treatment with the agents. In this regard, the compound numbers in Table 4 are the same as those in Table 1 and Table 2 above.” for “ares.”

[8] = system: Scirpus juncoides; experiment: as above; conditions: 120 g/10 a, treated seven days after seeding, 14 days after treatment
Text: as §3
as §1, with “after addition of water,” for “after water was added,”, “greenhouse. Emulsions” for “greenhouse. Immediately after that, emulsions”, “Table 4” for “Table 3”, “with water seven days after seeding,” for “with water,”, “ares. The test was conducted in a double system per one agent solution concentration area, and the herbicidal rates (%) were determined by the equation (Math. 1) 14 days after the treatment with the agents. In this regard, the compound numbers in Table 4 are the same as those in Table 1 and Table 2 above.” for “ares.”

[9] = system: Amaranthus viridis; experiment: Herbicidal effect test by treatment of dry field farming soil (Test Example 3); conditions: 120 g/10 a, sprayed one day after seeding, 14 days after treatment
Text: (§4) Herbicidal Rate (%)={1−(Average Dry Weight (g) of Plant of Treated Area)/(Average Dry Weight (g) of Plant of Untreated Area)}×100 [Math. 1] Pots with a size of 36 cm^2 were filled with a dry field farming soil (alluvium). The soil of the top layer of 1 cm and seeds of weeds, namely southern crabgrass, Echinochloa crus-galli, Chenopodium album and Amaranthus viridis, 20 seeds each, were evenly mixed, and the top layer was gently pressed. Emulsions prepared using the compounds in Table 5 below according to Formulation Example 5 were diluted with water one day after seeding, and the water-diluted agent solutions were sprayed to the soil surfaces at a ratio of 100 liters per 10 ares. A converted amount of the applied active ingredient corresponded to 120 g per 10 ares. The herbicidal effects were evaluated by the same standard as that in Test Example 1, 14 days after the treatment with the agents. In this regard, the compound numbers in Table 5 are the same as those in Table 1 and Table 2 above.

[10] = system: Chenopodium album; experiment: as above; conditions: 120 g/10 a, sprayed one day after seeding, 14 days after treatment
Text: as §4

[11] = system: Echinochloa crus-galli; experiment: as above; conditions: 120 g/10 a, sprayed one day after seeding, 14 days after treatment
Text: as §4

[12] = system: southern crabgrass; experiment: as above; conditions: 120 g/10 a, sprayed one day after seeding, 14 days after treatment
Text: as §4

[13] = system: Amaranthus viridis; experiment: Herbicidal effect test by treatment of stem and leaf in dry field farming (Test Example 4); conditions: 120 g/10 a, stem and leaf treatment seven days after seeding, 14 days after treatment
Text: as §4, with “Table 6” for “Table 5”, “water seven days” for “water one day”

[14] = system: Chenopodium album; experiment: as above; conditions: 120 g/10 a, stem and leaf treatment seven days after seeding, 14 days after treatment
Text: as §4, with “Table 6” for “Table 5”, “water seven days” for “water one day”

[15] = system: Echinochloa crus-galli; experiment: as above; conditions: 120 g/10 a, stem and leaf treatment seven days after seeding, 14 days after treatment
Text: as §4, with “Table 6” for “Table 5”, “water seven days” for “water one day”

[16] = system: southern crabgrass; experiment: as above; conditions: 120 g/10 a, stem and leaf treatment seven days after seeding, 14 days after treatment
Text: as §4, with “Table 6” for “Table 5”, “water seven days” for “water one day”

COC1CCCCC1n1oc(=O)c(Cc2ccccc2N(S(=O)(=O)C(F)(F)F)S(=O)(=O)C(F)(F)F)c1C (stereo not shown) [Compound 351, 1,1,1-trifluoro-N-[2-[[(2-methoxycyclohexyl)-3-methyl-5-oxoisoxazol-4-yl]methyl]phenyl]-N-(trifluoromethylsulfonyl)methanesulfonamide]
90%: Herbicidal rate, Scirpus juncoides [4] | Herbicidal rate, Scirpus juncoides [8] | Herbicidal rate, Amaranthus viridis [9] | Herbicidal rate, Echinochloa crus-galli [11] | Herbicidal rate, southern crabgrass [12] | Herbicidal rate, Echinochloa crus-galli [15]
60%: Herbicidal rate, Chenopodium album [10]
80%: Herbicidal rate, Lindernia pyxidaria [6] | Herbicidal rate, Monochoria vaginalis [7] | Herbicidal rate, Amaranthus viridis [13] | Herbicidal rate, Chenopodium album [14] | Herbicidal rate, southern crabgrass [16]
100%: Herbicidal rate, Echinochloa crus-galli [1] | Herbicidal rate, Lindernia pyxidaria [2] | Herbicidal rate, Monochoria vaginalis [3] | Herbicidal rate, Echinochloa crus-galli [5]
